Measurements taken from paper PMC6337671, “Simultaneous Determination of Five Phenolic Acids and Four Flavonoid Glycosides in Rat Plasma Using HPLC-MS/MS and Its Application to a Pharmacokinetic Study after a Single Intravenous Administration of Kudiezi Injection” (Molecules, 2018).
Where two headings read alike, the source gives them in different places.

What was measured:
[1] = Stability of the nine components in rat plasma QC samples (auto-sampler, freeze-thaw, long-term); type: physicochemical; details: n = 5; for 6 h in Auto-Sample, RE: extracted rat plasma; for Freeze-Thaw Stability (Three Cycles), RE / Long-Term Stability (−80 °C, 14 Days), RE: rat plasma
Description: The stability of the nine components in rat plasma was investigated under a variety of storage and process conditions. Table 4 summarizes the results of post-preparation (The QC samples were kept in the auto-sampler for 6 h), freeze and thaw and long-term (at −80 °C for 14 days) stability experiments.
Stability of the nine components were assessed under the condition of placing extracted plasma samples in auto-sampler for 6 h, as well as placing plasma samples within freeze-thaw three cycles and at −80 °C for 14 days. LQC, MQC and HQC samples with five replicates at each level were kept at the above conditions and analyzed against freshly prepared calibrators as the reference.

[2] = Pharmacokinetic study in rats after a single intravenous administration of concentrated Kudiezi injection (HPLC-MS/MS of plasma); type: in vivo, Sprague-Dawley rats; details: single i.v. 3.6 mL/kg of 15 times concentrated KI, mean ± SD; for MRT last: n = 5, read-out: MRT0-t; for MRT inf: n = 5, read-out: MRT0-∞
Description: Eight male Sprague-Dawley rats (200 ± 20 g) were obtained from Laboratory Animal Center of Fujian Medical University (Fuzhou, China). The animal studies were conducted in accordance with the Guide for the Care and Use of Laboratory Animals published by the USA National Institutes of Health (NIH Publication No. 85-23, revised 1996) and were approved by the Animal Ethic Review Committee of Fujian Medical University (Fuzhou, China). The rats were housed in rat cages (48 × 29 × 18 cm^3), in a unidirectional airflow room at a temperature of 22 ± 2 °C, a relative humidity of 40–70% and a 12 h light/dark cycle. They were fed with freely available commercial food and filtered tap water, and fasted with free access to water for 12 h before the experiments. Three of these rats were selected randomly as blank group with the above mentioned feeding conditions and without administration of drug, and after 24 h from the beginning of the experiment, their blood was collected up exhaustively from abdominal aorta to provide blank plasma for methodological validation. […] All rats were acclimated to the facilities and environment for 7 days before the experiments.
After administration, the rat tail was carefully cleaned with alcohol soaked cotton balls around the injection site to remove the residual drug. Blood was collected from the cut-tail before dosing and at the following time points: 2.5, 5, 10, 15, 20, 30, 45 min and 1, 2, 3, 4, 6, 8, 12 and 24 h after dosing. Plasma was isolated from the blood samples by centrifugation and then stored at −80 °C until analysis.
Noncompartmental pharmacokinetic parameters were calculated by DAS 3.0 software (Version DAS 3.2.8, Chinese Pharmacologic Society, Beijing, China). All the results are expressed as mean ± SD. A single-tailed Student’s t test was performed in the work.

[3] = tested on: Mas-related G protein coupled receptor X2; design: method as in PMID 30048896; details: cited from earlier work
[4] = HQC spiked 2000 ng/mL (4000 ng/mL for II)
[5] = LQC spiked 15 ng/mL (30 ng/mL for II)
[6] = MQC spiked 500 ng/mL (1000 ng/mL for II)
[7] = male, Sprague-Dawley, rat, plasma, iv, 3.6 mL/kg, n = 5
[8] = male, Sprague-Dawley, rat, plasma, iv, 3.6 mL/kg, n = 5, read-out: AUC0-t
[9] = male, Sprague-Dawley, rat, plasma, iv, 3.6 mL/kg
[10] = male, Sprague-Dawley, rat, plasma, iv, 3.6 mL/kg, n = 5, read-out: Vd

O=C(O)/C=C/c1ccc(O)c(O)c1 [Compound V, caffeic acid]
6 h in Auto-Sample, RE [1, 4]: −11.88%
6 h in Auto-Sample, RE [1, 5]: −18.04%
6 h in Auto-Sample, RE [1, 6]: −14.10%
Freeze-Thaw Stability (Three Cycles), RE [1, 4]: −7.76%
Long-Term Stability (−80 °C, 14 Days), RE [1, 4]: 7.83%
Freeze-Thaw Stability (Three Cycles), RE [1, 5]: −13.66%
Long-Term Stability (−80 °C, 14 Days), RE [1, 5]: −17.21%
Freeze-Thaw Stability (Three Cycles), RE [1, 6]: −2.10%
Long-Term Stability (−80 °C, 14 Days), RE [1, 6]: −5.99%
AUC(0-inf) [2, 7]: 0.237 ± 0.0436 µg·h/mL
clearance [2, 7]: 2.08 L/h/kg
half-life [2, 7]: 6.09 ± 0.9 h
AUC(0-t) [2, 8]: 0.146 ± 0.0408 µg·h/mL
MRT last [2, 9]: 4.09 ± 1.36 h
MRT inf [2, 9]: 9.75 ± 1.7 h
Vd [2, 10]: 17.9 ± 1.44 L/kg

O=c1cc(-c2ccc(O)c(O)c2)oc2cc(O[C@@H]3O[C@H](CO[C@@H]4O[C@H](CO)[C@@H](O)[C@H](O)[C@H]4O)[C@@H](O)[C@H](O)[C@H]3O)cc(O)c12 [Compound VI, luteolin-7-O-β-D-gentiobioside]
6 h in Auto-Sample, RE [1, 4]: 0.23%
6 h in Auto-Sample, RE [1, 5]: −14.11%
6 h in Auto-Sample, RE [1, 6]: −14.25%
Freeze-Thaw Stability (Three Cycles), RE [1, 4]: 9.34%
Long-Term Stability (−80 °C, 14 Days), RE [1, 4]: −5.24%
Freeze-Thaw Stability (Three Cycles), RE [1, 5]: −13.29%
Long-Term Stability (−80 °C, 14 Days), RE [1, 5]: −0.68%
Freeze-Thaw Stability (Three Cycles), RE [1, 6]: −3.78%
Long-Term Stability (−80 °C, 14 Days), RE [1, 6]: 2.31%
AUC(0-inf) [2, 7]: 0.173 ± 0.015 µg·h/mL
clearance [2, 7]: 7.66 L/h/kg
half-life [2, 7]: 0.23 ± 0.12 h
AUC(0-t) [2, 8]: 0.164 ± 0.00834 µg·h/mL
MRT last [2, 9]: 0.2 ± 0.08 h
MRT inf [2, 9]: 0.28 ± 0.15 h
Vd [2, 10]: 2.51 ± 1.13 L/kg

O=C(/C=C/c1ccc(O)c(O)c1)O[C@@H]1C[C@](O)(C(=O)O)C[C@@H](O)[C@H]1O [I, 5-caffeoylquinic acid]
6 h in Auto-Sample, RE [1, 4]: −5.26%
6 h in Auto-Sample, RE [1, 5]: −15.03%
6 h in Auto-Sample, RE [1, 6]: −14.93%
Freeze-Thaw Stability (Three Cycles), RE [1, 4]: −2.66%
Long-Term Stability (−80 °C, 14 Days), RE [1, 4]: −3.42%
Freeze-Thaw Stability (Three Cycles), RE [1, 5]: −16.92%
Long-Term Stability (−80 °C, 14 Days), RE [1, 5]: −10.71%
Freeze-Thaw Stability (Three Cycles), RE [1, 6]: −8.67%
Long-Term Stability (−80 °C, 14 Days), RE [1, 6]: −1.12%
AUC(0-inf) [2, 7]: 0.209 ± 0.0757 µg·h/mL
clearance [2, 7]: 2.99 L/h/kg
half-life [2, 7]: 2.22 ± 1.15 h
AUC(0-t) [2, 8]: 0.17 ± 0.0557 µg·h/mL
MRT last [2, 9]: 2.29 ± 1.65 h
MRT inf [2, 9]: 3.94 ± 2.71 h
Vd [2, 10]: 8.22 ± 2.51 L/kg

O=C(/C=C/c1ccc(O)c(O)c1)O[C@@H](C(=O)O)[C@@H](O)C(=O)O [II, caftaric acid]
6 h in Auto-Sample, RE [1, 4]: 3.63%
6 h in Auto-Sample, RE [1, 5]: −12.49%
6 h in Auto-Sample, RE [1, 6]: −9.25%
Freeze-Thaw Stability (Three Cycles), RE [1, 4]: 3.72%
Long-Term Stability (−80 °C, 14 Days), RE [1, 4]: −10.05%
Freeze-Thaw Stability (Three Cycles), RE [1, 5]: −17.36%
Long-Term Stability (−80 °C, 14 Days), RE [1, 5]: 1.30%
Freeze-Thaw Stability (Three Cycles), RE [1, 6]: 2.66%
Long-Term Stability (−80 °C, 14 Days), RE [1, 6]: −5.34%
AUC(0-inf) [2, 7]: 3.08 ± 0.483 µg·h/mL
clearance [2, 7]: 3.85 L/h/kg
half-life [2, 7]: 3.93 ± 0.47 h
AUC(0-t) [2, 8]: 2.76 ± 0.4 µg·h/mL
MRT last [2, 9]: 3.84 ± 1.84 h
MRT inf [2, 9]: 6.25 ± 2.83 h
Vd [2, 10]: 22.1 ± 6.21 L/kg

O=C(/C=C/c1ccc(O)c(O)c1)O[C@@H]1C[C@](O)(C(=O)O)C[C@@H](O)[C@H]1O [III, chlorogenic acid]
6 h in Auto-Sample, RE [1, 4]: −2.78%
6 h in Auto-Sample, RE [1, 5]: −7.40%
6 h in Auto-Sample, RE [1, 6]: −14.11%
Freeze-Thaw Stability (Three Cycles), RE [1, 4]: 2.98%
Long-Term Stability (−80 °C, 14 Days), RE [1, 4]: 2.07%
Freeze-Thaw Stability (Three Cycles), RE [1, 5]: −18.29%
Long-Term Stability (−80 °C, 14 Days), RE [1, 5]: −1.71%
Freeze-Thaw Stability (Three Cycles), RE [1, 6]: −5.77%
Long-Term Stability (−80 °C, 14 Days), RE [1, 6]: −1.20%
AUC0-∞ ([2]; rat plasma, n = 5): 0.19984 ± 0.03715 µg·h/mL
AUC(0-t) ([2]; rat plasma, n = 5): 0.15543 ± 0.02339 µg·h/mL
Cl ([2]; rat plasma, n = 5): 2.53 ± 0.43 L/h/kg
MRT0-t ([2]; rat plasma, n = 5): 3.30 ± 0.99 h
MRT0-∞ ([2]; rat plasma, n = 5): 5.93 ± 1.39 h
Vd ([2]; rat plasma, n = 5): 11.96 ± 3.10 L/kg
t1/2 ([2]; rat plasma, n = 5): 3.36 ± 0.97 h

O=C(/C=C/c1ccc(O)c(O)c1)O[C@H]1[C@H](O)C[C@](O)(C(=O)O)C[C@H]1O [IV, 4-caffeoylquinic acid]
6 h in Auto-Sample, RE [1, 4]: 6.12%
6 h in Auto-Sample, RE [1, 5]: −14.16%
6 h in Auto-Sample, RE [1, 6]: −15.00%
Freeze-Thaw Stability (Three Cycles), RE [1, 4]: 6.55%
Long-Term Stability (−80 °C, 14 Days), RE [1, 4]: 2.14%
Freeze-Thaw Stability (Three Cycles), RE [1, 5]: −14.73%
Long-Term Stability (−80 °C, 14 Days), RE [1, 5]: −10.44%
Freeze-Thaw Stability (Three Cycles), RE [1, 6]: −0.15%
Long-Term Stability (−80 °C, 14 Days), RE [1, 6]: −1.40%
AUC(0-inf) [2, 7]: 0.209 ± 0.054 µg·h/mL
clearance [2, 7]: 1.81 L/h/kg
half-life [2, 7]: 2.92 ± 1.13 h
AUC(0-t) [2, 8]: 0.16 ± 0.0394 µg·h/mL
MRT last [2, 9]: 2.72 ± 1.32 h
MRT inf [2, 9]: 5.07 ± 2.17 h
Vd [2, 10]: 7.03 ± 1.29 L/kg

O=C(O)[C@H]1O[C@@H](Oc2cc(O)c3c(=O)cc(-c4ccc(O)cc4)oc3c2)[C@H](O)[C@@H](O)[C@@H]1O [IX, apigenin-7-O-β-D-glucuronide]
identified as potential anaphylactoid component in KI [3]: potential anaphylactoid components
6 h in Auto-Sample, RE [1, 4]: 7.78%
6 h in Auto-Sample, RE [1, 5]: −13.77%
6 h in Auto-Sample, RE [1, 6]: −1.56%
Freeze-Thaw Stability (Three Cycles), RE [1, 4]: 3.36%
Long-Term Stability (−80 °C, 14 Days), RE [1, 4]: 5.33%
Freeze-Thaw Stability (Three Cycles), RE [1, 5]: −13.08%
Long-Term Stability (−80 °C, 14 Days), RE [1, 5]: −2.73%
Freeze-Thaw Stability (Three Cycles), RE [1, 6]: 0.53%
Long-Term Stability (−80 °C, 14 Days), RE [1, 6]: −0.28%
AUC(0-inf) [2, 7]: 0.0561 ± 0.00849 µg·h/mL
clearance [2, 7]: 10.1 L/h/kg
half-life [2, 7]: 0.07 ± 0.01 h
AUC(0-t) [2, 8]: 0.0557 ± 0.0085 µg·h/mL
MRT last [2, 9]: 0.09 ± 0.01 h
MRT inf [2, 9]: 0.09 ± 0.01 h
Vd [2, 10]: 1 ± 0.24 L/kg

O=C(O)[C@H]1O[C@@H](Oc2cc(O)c3c(=O)cc(-c4ccc(O)c(O)c4)oc3c2)[C@H](O)[C@@H](O)[C@@H]1O [VII, luteolin-7-O-β-D-glucuronide]
identified as potential anaphylactoid component in KI [3]: potential anaphylactoid components
6 h in Auto-Sample, RE [1, 4]: 5.65%
6 h in Auto-Sample, RE [1, 5]: −7.74%
6 h in Auto-Sample, RE [1, 6]: −12.46%
Freeze-Thaw Stability (Three Cycles), RE [1, 4]: 9.76%
Long-Term Stability (−80 °C, 14 Days), RE [1, 4]: 8.01%
Freeze-Thaw Stability (Three Cycles), RE [1, 5]: −10.80%
Long-Term Stability (−80 °C, 14 Days), RE [1, 5]: −2.91%
Freeze-Thaw Stability (Three Cycles), RE [1, 6]: −1.08%
Long-Term Stability (−80 °C, 14 Days), RE [1, 6]: −0.26%
AUC(0-inf) [2, 7]: 0.68 ± 0.109 µg·h/mL
clearance [2, 7]: 5.73 L/h/kg
half-life [2, 7]: 0.66 ± 0.2 h
AUC(0-t) [2, 8]: 0.672 ± 0.107 µg·h/mL
MRT last [2, 9]: 0.25 ± 0.11 h
MRT inf [2, 9]: 0.3 ± 0.12 h
Vd [2, 10]: 5.3 ± 1.21 L/kg

O=c1cc(-c2ccc(O)c(O)c2)oc2cc(O[C@@H]3O[C@H](CO)[C@@H](O)[C@H](O)[C@H]3O)cc(O)c12 [VIII, luteolin-7-O-β-D-glucoside]
identified as potential anaphylactoid component in KI [3]: potential anaphylactoid components
6 h in Auto-Sample, RE [1, 4]: 0.65%
6 h in Auto-Sample, RE [1, 5]: −12.91%
6 h in Auto-Sample, RE [1, 6]: −8.04%
Freeze-Thaw Stability (Three Cycles), RE [1, 4]: 3.11%
Long-Term Stability (−80 °C, 14 Days), RE [1, 4]: 11.47%
Freeze-Thaw Stability (Three Cycles), RE [1, 5]: −11.91%
Long-Term Stability (−80 °C, 14 Days), RE [1, 5]: −1.72%
Freeze-Thaw Stability (Three Cycles), RE [1, 6]: 0.67%
Long-Term Stability (−80 °C, 14 Days), RE [1, 6]: 0.81%
AUC(0-inf) [2, 7]: 0.031 ± 0.00209 µg·h/mL
clearance [2, 7]: 8.25 L/h/kg
half-life [2, 7]: 0.13 ± 0.02 h
AUC(0-t) [2, 8]: 0.0295 ± 0.00238 µg·h/mL
MRT last [2, 9]: 0.09 ± 0.02 h
MRT inf [2, 9]: 0.11 ± 0.02 h
Vd [2, 10]: 1.51 ± 0.35 L/kg
